Measurements from patent US20250326744A1, “PIPERAZINE DERIVATIVE OR SALT THEREOF, AND PHARMACEUTICAL COMPOSITION” (priority 2022, published 2025).
Counter-ions that a name gives are not always drawn.

Assays:
mexY (EC) strain = assay: Efflux ability inhibition effect on drug efflux pump MexY (Test Examples 1 and 3): proliferation (OD595) of mexY (EC) strain with EM or LVFX at 1/4 MIC, EC75; assay type: cell-based, Escherichia coli; conditions: Table 51, Test Example 1, 16 to 20 hours culture, OD595; for EC75, mexY (EC) strain, EM: combined with EM at 1/4 MIC; for EC75, mexY (EC) strain, LVFX: combined with LVFX at 1/4 MIC
Experimental: The efflux ability inhibition effect of the test compound on the drug efflux pump was evaluated using the bacterial proliferative ability in the presence of EM or LVFX as an index.
EM is a macrolide antibacterial agent and is a drug that is discharged outside the bacteria by MexB and MexY LVFX is a quinolone antibacterial agent and is a drug that is discharged outside the bacteria by MexB and MexY In a case where the test compound has an efflux ability inhibitory ability against the drug efflux pump, the proliferation of bacteria is suppressed by the combined use of EM or LVFX and the test compound, as compared with the case where EM or LVFX is used alone.
A mutant strain (hereinafter, referred to as an “mexB (EC) strain”) obtained by transferring the genes of the main multidrug efflux system MexAB-OprM of Pseudomonas aeruginosa described in Nature, 2013, Vol. 500, pp. 102 to 106 as a plasmid into Escherichia coli strains in which the acrB and tolC genes of the multidrug efflux system AcrAB-TolC were deleted as described in Journal of Infection and Chemotherapy 2008, Vol. 14, pp. 23 to 29, and a gene transfer strain (hereinafter, referred to as an “mexY (EC) strain”) of another main multidrug efflux system MexXY-OprM of Pseudomonas aeruginosa were used for the evaluation of test compounds.
In the mexB (EC) strain, an expression level of MexB of the drug efflux pump is accelerated, and in the mexY (EC) strain, an expression level of MexY of the drug efflux pump is accelerated.
For culturing each Escherichia coli strain, a 96-well plate (amount of culture medium per well: 100 μL) was used and Luria-Bertani broth (LB) culture medium was used. The inoculation amount of the bacteria was set to 10^4 to 5 CFU/well.
The mexB (EC) strain and the mexY (EC) strain were cultured for 16 to 20 hours in a culture medium to which EM or LVFX and test compounds at various concentrations (0 to 800 μM) were added, and the proliferation of the bacterial strains was evaluated by optical turbidity at 595 nm (OD595). The concentration of the antibacterial agents (EM and LVFX) in the culture medium were each set to ¼ of the minimum inhibitory concentration (MIC) (hereinafter, referred to as ¼ MIC) of the single antibacterial agent.
The proliferation of bacteria in a case where the antibacterial agent was added at the concentration of ¼ MIC in a case where the test compound was not added was measured, and compared with the proliferation of bacteria in a case where the test compound was contained, and the lowest concentration of the test compound at which the proliferation was inhibited by 75% or more was defined as the drug efflux pump inhibitory ability of the test compound as 75% inhibitory effect concentration (EC75).
The drug efflux pump inhibitory ability of each test compound in a case of being used in combination with the antibacterial agent against the mexB (EC) strain and the mexY (EC) strain was evaluated as follows according to the value of EC75. • S: EC75≤[…] • A: 12.5 μM<EC75≤25 μM • B: 25 μM<EC75≤100 μM • C: […]
In the same manner as in Test Example 1, the efflux ability inhibition effect of the test compound on the drug efflux pump was evaluated using the bacterial proliferation ability in the presence of EM or LVFX as an index.

mexB (PA) strain = assay: Combinational effect with antibacterial agent against Pseudomonas aeruginosa (Test Examples 2 and 4): mexB (PA) strain with LVFX, TC or AZT at 1/4 MIC, EC99; assay type: cell-based; conditions: Table 52, Test Example 2, 16 to 20 hours culture, OD595; for EC99, mexB (PA), AZT: combined with AZT at 1/4 MIC; for EC99, mexB (PA), LVFX: combined with LVFX at 1/4 MIC
Outline: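 EC99 denotes the minimum test-compound concentration (range 0–800 μM) that suppresses ≥99% of growth, measured by OD595, when combined with ¼ MIC levofloxacin (LVFX), tetracycline or aztreonam. The efflux-pump mutant mexB (PA), expressing mainly MexAB-OprM, was inoculated at 10^4–5 CFU/well in CAMHB for 16–20 h.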

S-3769 strain = assay: Combinational effect with antibacterial agent against Pseudomonas aeruginosa (Test Examples 2 and 4): S-3769 strain with AMK or GM at 1/4 MIC, EC99; assay type: cell-based; conditions: Table 52, Test Example 2, 16 to 20 hours culture, OD595
Outline: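 EC99, the lowest test-compound concentration inhibiting growth by ≥99% (OD595), was measured with aminoglycoside AMK or GM held at ¼ MIC. Strain S-3769, a MexY-overexpressing clinical isolate, was cultured in CAMHB at 10^4 to 5 CFU/well for 16–20 h; compound range 0–800 μM.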

SMILES: CCOc1cccc(F)c1CN1CCN(C(=O)[C@H](N)C2CCN(CC(F)c3ccccc3)CC2)CC1 (stereo partly drawn) [Example 59, Hydrobromide of (2R)-2-amino-1-(4-(2-ethoxy-6-fluorobenzyl)piperazin-1-yl)-2-(1-(2-fluoro-2-phenylethyl)piperidin-4-yl) ethan-1-one]
- EC75, mexY (EC) strain, EM (mexY (EC) strain): B (25 μM<EC75≤100 μM)
- EC75, mexY (EC) strain, LVFX (mexY (EC) strain): B (25 μM<EC75≤100 μM)

SMILES: COc1ccccc1CN1CCN(C(=O)CN2CCN(CCc3cccc(Cl)c3)CC2)CC1 [Example 272, 2-(4-(3-chlorophenethyl)piperazin-1-yl)-1-(4-(2-methoxybenzyl)piperazin-1-yl)ethan-1-one]
- EC75, mexY (EC) strain, EM (mexY (EC) strain): B (25 μM<EC75≤100 μM)
- EC75, mexY (EC) strain, LVFX (mexY (EC) strain): B (25 μM<EC75≤100 μM)
- EC99, mexB (PA), AZT (mexB (PA) strain): S (EC99≤12.5 μM)
- EC99, mexB (PA), LVFX (mexB (PA) strain): S (EC99≤12.5 μM)

SMILES: O=C(CN1CCN(CCc2ccccc2)CC1)N1CCN(CC2CCCCC2)CC1 [Example 210, Hydrochloride of 1-(4-(cyclohexylmethyl)piperazin-1-yl)-2-(4-phenethylpiperazin-1-yl)ethan-1-one]
- EC75, mexY (EC) strain, EM (mexY (EC) strain): B (25 μM<EC75≤100 μM)

SMILES: COc1ccccc1CN1CCN(C(=O)C(F)(F)C2CCN(CCc3ccccc3)CC2)CC1 [Example 299, hydrochloride of 2,2-difluoro-1-(4-(2-methoxybenzyl)piperazin-1-yl)-2-(1-phenethylpiperidin-4-yl)ethan-1-one]
- EC75, mexY (EC) strain, EM (mexY (EC) strain): B (25 μM<EC75≤100 μM)
- EC75, mexY (EC) strain, LVFX (mexY (EC) strain): B (25 μM<EC75≤100 μM)

SMILES: COc1ccccc1CN1CCN(C(=O)CN2CCC(CCc3ccccc3)(COCc3ccccc3)CC2)CC1 [Example 403, Hydrochloride of 2-(4-((benzyloxy)methyl)-4-phenethylpiperidin-1-yl)-1-(4-(2-methoxybenzyl)piperazin-1-yl)ethan-1-one]
- EC75, mexY (EC) strain, LVFX (mexY (EC) strain): B (25 μM<EC75≤100 μM)
- EC99, mexB (PA), AZT (mexB (PA) strain): S (EC99≤12.5 μM)
- EC99, mexB (PA), LVFX (mexB (PA) strain): S (EC99≤12.5 μM)

SMILES: COc1ccccc1CN1CCN(C(=O)CN2CCC(/C=C/c3ccccc3)CC2)CC1 [Example 400, hydrochloride of (E)-1-(4-(2-methoxybenzyl)piperazin-1-yl)-2-(4-styrylpiperidin-1-yl)ethan-1-one]
- EC75, mexY (EC) strain, EM (mexY (EC) strain): B (25 μM<EC75≤100 μM)
- EC75, mexY (EC) strain, LVFX (mexY (EC) strain): B (25 μM<EC75≤100 μM)
- EC99, mexB (PA), AZT (mexB (PA) strain): A (12.5 μM<EC99≤25 μM)
- EC99, mexB (PA), LVFX (mexB (PA) strain): S (EC99≤12.5 μM)

SMILES: CCOc1cccc(F)c1CN1CCN(C(=O)[C@H](N)C2CCN(CCn3c(=O)ccc4ncc(F)cc43)CC2)CC1 [Example 14, Hydrobromide of (R)-1-(2-(4-(1-amino-2-(4-(2-ethoxy-6-fluorobenzyl)piperazin-1-yl)-2-oxoethyl)piperidin-1-yl)ethyl)-7-fluoro-1,5-naphthyridin-2(1H)-one]
- EC75, mexY (EC) strain, EM (mexY (EC) strain): B (25 μM<EC75≤100 μM)
- EC75, mexY (EC) strain, LVFX (mexY (EC) strain): B (25 μM<EC75≤100 μM)

SMILES: COc1ccccc1CN1CCN(C(=O)[C@H](NCc2ccccc2)C2CCN(CCc3cccc(Cl)c3)CC2)CC1 [Example 142, hydrochloride of (R)-2-(benzylamino)-2-(1-(3-chlorophenethyl)piperidin-4-yl)-1-(4-(2-methoxybenzyl)piperazin-1-yl)ethan-1-one]
- EC75, mexY (EC) strain, EM (mexY (EC) strain): B (25 μM<EC75≤100 μM)
- EC75, mexY (EC) strain, LVFX (mexY (EC) strain): B (25 μM<EC75≤100 μM)

SMILES: CCOc1cccc(F)c1CN1CCN(C(=O)[C@H](N)C2CCN(CCC34CC5CC(CC(C5)C3)C4)CC2)CC1 [Example 125]
- EC75, mexY (EC) strain, EM (mexY (EC) strain): A (12.5 μM<EC75≤25 μM)

SMILES: COc1ccccc1CN1CCN(C(=O)CN2CCN(CCc3ccoc3)CC2)CC1 [Example 291, 2-(4-(2-(Furan-3-yl)ethyl)piperazin-1-yl)-1-(4-(2-methoxybenzyl)piperazin-1-yl)ethan-1-one and hydrochloride thereof]
- EC75, mexY (EC) strain, EM (mexY (EC) strain): B (25 μM<EC75≤100 μM)

SMILES: CCOc1cccc(F)c1CN1CCN(C(=O)[C@H](N)C2CCN(CCc3cc(Cl)ccc3-c3ccccc3C#N)CC2)CC1 [Example 64, Hydrobromide of (R)-2′-(2-(4-(1-amino-2-(4-(2-ethoxy-6-fluorobenzyl)piperazin-1-yl)-2-oxoethyl)piperidin-1-yl)ethyl)-4′-chloro-[1,1′-biphenyl]-2-carbonitrile]
- EC75, mexY (EC) strain, EM (mexY (EC) strain): A (12.5 μM<EC75≤25 μM)

SMILES: CCOc1cccc(F)c1CN1CCN(C(=O)[C@H](N)C2CCN(CCC3CCCC3)CC2)CC1 [Example 41, Hydrobromide of (R)-2-amino-2-(1-(2-cyclopentylethyl)piperidin-4-yl)-1-(4-(2-ethoxy-6-fluorobenzyl)piperazin-1-yl) ethan-1-one]
- EC75, mexY (EC) strain, EM (mexY (EC) strain): A (12.5 μM<EC75≤25 μM)
- EC75, mexY (EC) strain, LVFX (mexY (EC) strain): A (12.5 μM<EC75≤25 μM)

SMILES: CCOc1cccc(F)c1CN1CCN(C(=O)[C@H](N)C2CCN(CCC3CCCCC3)CC2)CC1 [Example 47, Hydrobromide of (R)-2-amino-2-(1-(2-cyclohexylethyl)piperidin-4-yl)-1-(4-(2-ethoxy-6-fluorobenzyl)piperazin-1-yl)ethan-1-one]
- EC75, mexY (EC) strain, EM (mexY (EC) strain): A (12.5 μM<EC75≤25 μM)
- EC75, mexY (EC) strain, LVFX (mexY (EC) strain): A (12.5 μM<EC75≤25 μM)

SMILES: COc1ccccc1CN1CCN(C(=O)CN2CCC(CCc3ccccc3)(NC(N)=O)CC2)CC1 [Example 416, hydrochloride of 1-(1-(2-(4-(2-methoxybenzyl)piperazin-1-yl)-2-oxoethyl)-4-phenethylpiperidin-4-yl)urea]
- EC75, mexY (EC) strain, EM (mexY (EC) strain): B (25 μM<EC75≤100 μM)
- EC75, mexY (EC) strain, LVFX (mexY (EC) strain): B (25 μM<EC75≤100 μM)

SMILES: COc1ccccc1CN1CCN(C(=O)CN2CCC(C(=O)Nc3ccccc3)CC2)CC1 [Example 408, Hydrochloride of 1-(2-(4-(2-methoxybenzyl)piperazin-1-yl)-2-oxoethyl)-N-phenylpiperidine-4-carboxamide]
- EC75, mexY (EC) strain, EM (mexY (EC) strain): B (25 μM<EC75≤100 μM)
- EC75, mexY (EC) strain, LVFX (mexY (EC) strain): B (25 μM<EC75≤100 μM)

SMILES: CCOc1cccc(F)c1CN1CCN(C(=O)[C@H](N)C2CCN(CCC3(C)CCCCC3)CC2)CC1 [Example 126, Hydrochloride of (R)-2-amino-1-(4-(2-ethoxy-6-fluorobenzyl)piperazin-1-yl)-2-(1-(2-(1-methylcyclohexyl)ethyl)piperidin-4-yl)ethan-1-one]
- EC75, mexY (EC) strain, EM (mexY (EC) strain): A (12.5 μM<EC75≤25 μM)
- EC75, mexY (EC) strain, LVFX (mexY (EC) strain): A (12.5 μM<EC75≤25 μM)

SMILES: CCOc1cccc(F)c1CN1CCN(C(=O)[C@H](N)C2CCN(CCc3c(-c4ccccc4)ccc(Cl)c3F)CC2)CC1 [Example 79, Hydrobromide of (R)-2-amino-2-(1-(2-(4-chloro-3-fluoro-[1,1′-biphenyl]-2-yl)ethyl)piperidin-4-yl)-1-(4-(2-ethoxy-6-fluorobenzyl)piperazin-1-yl)ethan-1-one]
- EC99, mexB (PA), AZT (mexB (PA) strain): B (25 μM<EC99≤100 μM)
- EC99, mexB (PA), LVFX (mexB (PA) strain): B (25 μM<EC99≤100 μM)
- EC99, mexB (PA), TC (mexB (PA) strain; combined with TC at 1/4 MIC): B (25 μM<EC99≤100 μM)
- EC99, S-3769 strain, AMK (S-3769 strain; combined with AMK at 1/4 MIC): S (EC99≤12.5 μM)
- EC99, S-3769 strain, GM (S-3769 strain; combined with GM at 1/4 MIC): A (12.5 μM<EC99≤25 μM)
